Drawing on PubChem BioAssay (NCI), this text covers GI50 and TGI for eight molecules.

SMILES strings stand for the structures.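 Where inhibition never reached the appropriate level, the endpoint shown equals the highest concentration tested. Otherwise, values were interpolated linearly from a five-concentration, 48-hour dose response in 96-well plates. Here, GI50 denotes the concentration required for 50% inhibition of growth. TGI denotes the concentration required for complete inhibition of growth.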 Bounds are passed on as bounds.

Among the test systems are DU-145 prostate; IGROV1 ovarian; LOX IMVI melanoma; MDA-MB-231 breast; OVCAR-8 ovarian; SK-MEL-2 melanoma; SK-MEL-28 melanoma; SK-MEL-5 melanoma; SNB-19 CNS; T-47D breast.
Test in all cases: NCI tumour cell line growth inhibition, 48 h

Take `COc1ccc(/C=C/C(=O)c2cc(OC)c(OC)c(OC)c2)cc1OCC(=O)Nc1nc2ccc(OC(F)(F)F)cc2s1`: the GI50 was 1.56 µM in the experiment on DU-145 prostate; 2.54 µM with IGROV1 ovarian; 0.47 µM in the experiment on LOX IMVI melanoma; 2.01 µM in the experiment with MDA-MB-231 breast; 1540 nM in the experiment on OVCAR-8 ovarian; 4.97 µM with SK-MEL-2 melanoma. For the same molecule, the GI50 in the experiment with SK-MEL-28 melanoma was 3.31 µM; with SK-MEL-5 melanoma it was 2.03 µM; with SNB-19 CNS, 1.58 µM; in the experiment on T-47D breast, 3.08 µM. The TGI with DU-145 prostate was determined as 4.55 µM; in the experiment on IGROV1 ovarian it was 5.56 µM; in the experiment on LOX IMVI melanoma it was 1.95 µM; with MDA-MB-231 breast, 5.01 µM; in the experiment with OVCAR-8 ovarian it was 3.89 µM; in the experiment with SK-MEL-2 melanoma, 27.1 µM. Besides, the TGI with SK-MEL-28 melanoma was 25.9 µM; in the experiment with SK-MEL-5 melanoma, 10.5 µM; in the experiment with SNB-19 CNS, 51.8 µM; in the experiment with T-47D breast it was 10.9 µM.

Turning to `CC(C)(C)c1ccc(S(=O)(=O)Oc2ccc3c4c(c(=O)oc3c2)CCCCC4)cc1`, the GI50 is 37.9 µM with DU-145 prostate; 14.9 µM in the experiment with IGROV1 ovarian; 32.5 µM with LOX IMVI melanoma; 15.2 µM with MDA-MB-231 breast; 21800 nM in the experiment with OVCAR-8 ovarian; 16.5 µM with SK-MEL-2 melanoma. Further, the GI50 is 24.1 µM in the experiment with SK-MEL-28 melanoma, 5.48 µM in the experiment with SK-MEL-5 melanoma, 16.4 µM with SNB-19 CNS and 5.17 µM in the experiment on T-47D breast. Also, the TGI in the experiment with DU-145 prostate was greater than 100 µM; in the experiment with IGROV1 ovarian, 48.5 µM; in the experiment on LOX IMVI melanoma, greater than 100 µM; with MDA-MB-231 breast, 49.3 µM; in the experiment on OVCAR-8 ovarian it was greater than 100 µM; in the experiment on SK-MEL-2 melanoma it was 55.6 µM. Besides, the TGI with SK-MEL-28 melanoma was greater than 100 µM; in the experiment on SK-MEL-5 melanoma, 85.4 µM; in the experiment on SNB-19 CNS, 52.1 µM; in the experiment with T-47D breast, greater than 100 µM.

`CCOC(=O)C1Cc2c(cc3c4c(cccc24)N(C(C)=O)C3)N(C)C1` (stereo not given): the TGI was greater than 100 µM in the experiment with DU-145 prostate; greater than 100 µM in the experiment with IGROV1 ovarian; greater than 100 µM in the experiment with LOX IMVI melanoma; 5.71 µM with MDA-MB-231 breast; greater than 100 µM in the experiment with OVCAR-8 ovarian; greater than 100 µM in the experiment with SK-MEL-2 melanoma. Moreover, the TGI with SK-MEL-28 melanoma, with SK-MEL-5 melanoma, in the experiment on SNB-19 CNS and with T-47D breast was greater than 100 µM throughout.

Consider `O=Nc1ccc(O)c(=O)cc1`, for which the GI50 in the experiment on DU-145 prostate was 3.74 µM; in the experiment on IGROV1 ovarian it was 3.77 µM; with LOX IMVI melanoma, 2.16 µM; in the experiment with MDA-MB-231 breast, 2.31 µM; in the experiment with OVCAR-8 ovarian it was 2820 nM; with SK-MEL-2 melanoma it was 2.61 µM. The GI50 was 2.26 µM in the experiment on SK-MEL-28 melanoma, 3.63 µM with SK-MEL-5 melanoma, 13.5 µM with SNB-19 CNS and 1.76 µM in the experiment on T-47D breast. Also, the TGI in the experiment on DU-145 prostate amounted to 10.8 µM; with IGROV1 ovarian, 11.3 µM; in the experiment with LOX IMVI melanoma it was 7.67 µM; with MDA-MB-231 breast, 8.79 µM; with OVCAR-8 ovarian, 11 µM; in the experiment on SK-MEL-2 melanoma, 5.89 µM. Further, the TGI in the experiment on SK-MEL-28 melanoma was found to be 7.02 µM; in the experiment with SK-MEL-5 melanoma, 10.6 µM; in the experiment on SNB-19 CNS, 27.3 µM; with T-47D breast, 4.28 µM.

As for `CC(=O)c1ccc2c(c1)c1cc(C(C)=O)ccc1n2CCNC(C)C`, the GI50 was 0.453 µM in the experiment with DU-145 prostate; 0.341 µM with IGROV1 ovarian; 0.211 µM in the experiment with LOX IMVI melanoma; 0.516 µM with MDA-MB-231 breast; 373 nM with OVCAR-8 ovarian; 0.569 µM in the experiment with SK-MEL-2 melanoma. For the same molecule, the GI50 in the experiment with SK-MEL-28 melanoma is 0.326 µM; with SK-MEL-5 melanoma, 0.291 µM; in the experiment on SNB-19 CNS, 0.3 µM; in the experiment on T-47D breast, 0.523 µM. The TGI amounted to 5.42 µM in the experiment on DU-145 prostate; 6.73 µM in the experiment with IGROV1 ovarian; 0.526 µM in the experiment with LOX IMVI melanoma; 3.16 µM in the experiment with MDA-MB-231 breast; 3.87 µM with OVCAR-8 ovarian; 2.23 µM in the experiment with SK-MEL-2 melanoma. Moreover, the TGI in the experiment on SK-MEL-28 melanoma is 1.47 µM; in the experiment with SK-MEL-5 melanoma, 0.923 µM; with SNB-19 CNS, 1.62 µM; in the experiment on T-47D breast, 13 µM.

`CCCCCCCCCCCCOC1C(CNC(=O)C2OC3OC(C)(C)OC3C2NC(=O)Nc2ccc(CC(=O)OC)cc2)OC2OC(C)(C)OC21` (stereo not given): the GI50 with DU-145 prostate was greater than 77 µM; in the experiment with IGROV1 ovarian, greater than 90.9 µM; in the experiment with LOX IMVI melanoma, 47.7 µM; in the experiment on MDA-MB-231 breast, 8.43 µM; with OVCAR-8 ovarian it was greater than 100000 nM; in the experiment on SK-MEL-2 melanoma, greater than 100 µM. In addition, the GI50 in the experiment with SK-MEL-28 melanoma, in the experiment with SK-MEL-5 melanoma, in the experiment on SNB-19 CNS and with T-47D breast was greater than 100 µM each time. Further, the TGI with DU-145 prostate is greater than 100 µM; in the experiment with IGROV1 ovarian, greater than 100 µM; with LOX IMVI melanoma, greater than 100 µM; in the experiment with MDA-MB-231 breast, greater than 82 µM; in the experiment with OVCAR-8 ovarian, greater than 100 µM; in the experiment with SK-MEL-2 melanoma, greater than 100 µM. Moreover, the TGI with SK-MEL-28 melanoma, with SK-MEL-5 melanoma, in the experiment with SNB-19 CNS and with T-47D breast was greater than 100 µM each time.

`COc1ccc(/C=C(/C#N)C(N)=O)c(OC)c1`: the TGI with DU-145 prostate, in the experiment with IGROV1 ovarian, in the experiment with LOX IMVI melanoma, in the experiment with MDA-MB-231 breast, with OVCAR-8 ovarian and with SK-MEL-2 melanoma was greater than 100 µM throughout. Besides, the TGI in the experiment with SK-MEL-28 melanoma, in the experiment with SK-MEL-5 melanoma, in the experiment on SNB-19 CNS and with T-47D breast was greater than 100 µM throughout.

Consider `COc1ccc2c(c1)/C(=C\c1c(-c3cc(OC)ccc3OC)nc3sc(C)cn13)C(=O)N2C`, for which the GI50 with DU-145 prostate is 56.9 µM; in the experiment with IGROV1 ovarian, 19.4 µM; in the experiment with LOX IMVI melanoma, 23.9 µM; in the experiment on MDA-MB-231 breast, 16.7 µM; with OVCAR-8 ovarian it was 28200 nM; in the experiment on SK-MEL-2 melanoma, 17.3 µM. Also, the GI50 in the experiment with SK-MEL-28 melanoma was 16 µM; with SK-MEL-5 melanoma it was 20.9 µM; in the experiment with SNB-19 CNS, 58.9 µM; in the experiment with T-47D breast, 29.7 µM. In addition, the TGI with DU-145 prostate was greater than 100 µM; in the experiment with IGROV1 ovarian it was greater than 100 µM; in the experiment with LOX IMVI melanoma, 83.5 µM; in the experiment with MDA-MB-231 breast, 96.7 µM; in the experiment with OVCAR-8 ovarian it was greater than 100 µM; in the experiment with SK-MEL-2 melanoma, 38.5 µM. Further, the TGI was 32.3 µM in the experiment with SK-MEL-28 melanoma, 65.4 µM in the experiment on SK-MEL-5 melanoma, greater than 100 µM in the experiment with SNB-19 CNS and greater than 100 µM with T-47D breast.
